Results on 15 molecules are retold here after PubChem BioAssay (NCI).

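How tested: cells in 96-well plates exposed to compound for 48 hours at five concentrations. At the TGI there is no net growth.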 Bounds are passed on as bounds.

Test systems include EKVX NSCLC; HCT-15 colon; HL-60(TB) leukemia; HT29 colon; MDA-MB-231 breast; MDA-N; NCI-H460 lung; OVCAR-4 ovarian; TK-10 renal.
Holding throughout (experiment): DTP human tumour cell line panel, 48 h

In the case of `O=C1CC[C@@]2(O)[C@H]3Cc4ccc(-c5ccccc5)c5c4[C@@]2(CCN3CC2CC2)[C@H]1O5`, the TGI (commonly the concentration at which net growth stops) in the test on EKVX NSCLC was 52.3 µM; with HCT-15 colon it was 41.2 µM; in the test on HL-60(TB) leukemia, 37.3 µM; with HT29 colon it was 27.8 µM; in the test with MDA-MB-231 breast it was 31.8 µM; with MDA-N, 32.9 µM. In addition, the total growth inhibition concentration (TGI) was 35.5 µM with NCI-H460 lung, over 100 µM in the test with OVCAR-4 ovarian and 36.4 µM in the test with TK-10 renal.
On to `Cc1cc(S(=O)(=O)Nc2nnc3cnc4ccccc4n23)c(S)cc1Cl`, for which the concentration for total growth inhibition (TGI) with EKVX NSCLC, in the test with HCT-15 colon, in the test with HL-60(TB) leukemia, in the test with HT29 colon, in the test with MDA-MB-231 breast and in the test on MDA-N was over 100 µM throughout. Further, the total growth inhibition concentration (TGI) in the test with NCI-H460 lung, in the test on OVCAR-4 ovarian and in the test on TK-10 renal was over 100 µM each time.
`CC(=O)Nc1c(S(=O)(=O)c2ccccc2)c(C)c(C)n1Cc1ccccc1`: the TGI in the test with EKVX NSCLC, in the test with HCT-15 colon, in the test with HL-60(TB) leukemia, in the test on HT29 colon, in the test on MDA-MB-231 breast and in the test on MDA-N was over 100 µM in each case. Further, the total growth inhibition concentration (TGI) with NCI-H460 lung, in the test on OVCAR-4 ovarian and in the test with TK-10 renal was over 100 µM each time.
`C=C(C)COC1CCCCO1` (configuration not stated): the TGI in the test with EKVX NSCLC, in the test on HCT-15 colon, with HL-60(TB) leukemia, in the test on HT29 colon, in the test on MDA-MB-231 breast and in the test with MDA-N was over 100 µM each time. Further, the TGI with NCI-H460 lung and in the test on TK-10 renal was over 100 µM throughout.
For the molecule `CC(C)(C)c1cc(OCc2nn3c(Cc4ccccc4)nnc3s2)c(Cl)cc1OCc1nn2c(Cc3ccccc3)nnc2s1`, the TGI in the test with EKVX NSCLC is over 100 µM; in the test with HCT-15 colon, over 100 µM; in the test with HL-60(TB) leukemia, 97.9 µM; with HT29 colon, over 100 µM; in the test with MDA-MB-231 breast, over 100 µM; with MDA-N, over 100 µM. Moreover, the TGI with NCI-H460 lung, with OVCAR-4 ovarian and with TK-10 renal was over 100 µM each time.
With `Cc1cc(S(=O)(=O)Nc2nc3ccccc3nc2-c2ccc(Cl)cc2)c(S)cc1Cl`, the TGI stood at 29.1 µM with EKVX NSCLC; 42.2 µM in the test with HCT-15 colon; 44.1 µM in the test with HL-60(TB) leukemia; 31.4 µM with HT29 colon; 54 µM in the test with MDA-MB-231 breast; 35.6 µM in the test on MDA-N. Moreover, the total growth inhibition concentration (TGI) in the test with NCI-H460 lung amounted to 29.4 µM; in the test on OVCAR-4 ovarian it was 28.2 µM; in the test with TK-10 renal, 63.7 µM.
As for `CSc1ccn(C2CC(F)C(CO)O2)c(=O)n1` (configuration not stated), the TGI with EKVX NSCLC, in the test with HCT-15 colon, in the test on HL-60(TB) leukemia, with HT29 colon, in the test with MDA-MB-231 breast and with MDA-N was over 100 µM throughout. For the same molecule, the TGI with NCI-H460 lung, with OVCAR-4 ovarian and in the test with TK-10 renal was over 100 µM each time.
With `Cc1ccc(-c2nc(N/N=C/c3ccc(O)cc3)c3ccccc3n2)cc1`, the total growth inhibition concentration (TGI) is 37.4 µM in the test with EKVX NSCLC; over 100 µM in the test with HCT-15 colon; over 100 µM with HL-60(TB) leukemia; over 100 µM in the test with HT29 colon; 91.5 µM with MDA-MB-231 breast; 23.7 µM in the test with MDA-N. For the same molecule, the TGI in the test with NCI-H460 lung was 50.1 µM; in the test on OVCAR-4 ovarian, 16.2 µM; in the test on TK-10 renal, 68.5 µM.
Take `COc1ccc(C2C(C#N)=C(S)N(C3OC(COC(C)=O)C(OC(C)=O)C(OC(C)=O)C3OC(C)=O)C(c3ccccc3)=C2C(C)=O)cc1` (configuration not stated): the total growth inhibition concentration (TGI) in the test with HCT-15 colon, with HL-60(TB) leukemia, in the test with HT29 colon, in the test on MDA-MB-231 breast, in the test on MDA-N and with NCI-H460 lung was over 100 µM in each case. In addition, the TGI with OVCAR-4 ovarian and in the test on TK-10 renal was over 100 µM in each case.
Consider `O=C(/C=C(\S/C=C(/c1ccccc1)N1CCn2c(C(=O)c3ccccc3)c(C(=O)c3ccccc3)c(C(=O)c3ccccc3)c21)C(=O)c1ccccc1)c1ccccc1`, for which the concentration for total growth inhibition (TGI) in the test with EKVX NSCLC, in the test with HCT-15 colon, with HL-60(TB) leukemia, with HT29 colon, in the test on MDA-MB-231 breast and in the test with MDA-N was over 10 µM throughout. Also, the TGI in the test with NCI-H460 lung, with OVCAR-4 ovarian and in the test with TK-10 renal was over 10 µM throughout.
Consider `NC1=Nc2cc(Cl)ccc2Sc2nc3ccccc3n21`, for which the TGI in the test on EKVX NSCLC is over 100 µM; in the test on HCT-15 colon, over 100 µM; in the test with HL-60(TB) leukemia it was 7.49 µM; in the test with HT29 colon, over 100 µM; in the test on MDA-MB-231 breast, over 100 µM; in the test on MDA-N it was over 100 µM. The concentration for total growth inhibition (TGI) with NCI-H460 lung, in the test with OVCAR-4 ovarian and with TK-10 renal was over 100 µM each time.
For `Nc1nc(Cl)cc(NC2(CO)CCC2)n1`, the TGI in the test with EKVX NSCLC, in the test with HCT-15 colon, in the test with HL-60(TB) leukemia, with HT29 colon, with MDA-MB-231 breast and with MDA-N was over 100 µM throughout. Also, the total growth inhibition concentration (TGI) in the test with NCI-H460 lung, in the test on OVCAR-4 ovarian and in the test on TK-10 renal was over 100 µM each time.
As for `CCOC(=O)C(Cc1ccc(OC(=O)OC(C)(C)C)cc1)NC(=O)OC(C)(C)C` (configuration not stated), the total growth inhibition concentration (TGI) in the test with EKVX NSCLC is over 100 µM; in the test with HCT-15 colon, over 100 µM; with HL-60(TB) leukemia it was 80.1 µM; in the test with HT29 colon, over 100 µM; with MDA-MB-231 breast it was over 100 µM; with MDA-N, over 100 µM. The total growth inhibition concentration (TGI) in the test with NCI-H460 lung, in the test with OVCAR-4 ovarian and in the test with TK-10 renal was over 100 µM throughout.
As to `Cc1c(N=Nc2ccccc2)c(C)n(C2OC(CO)C(O)C(O)C2O)c(=S)c1C#N` (configuration not stated), the TGI with HCT-15 colon, with HL-60(TB) leukemia, in the test on HT29 colon, in the test on MDA-MB-231 breast, with MDA-N and in the test on NCI-H460 lung was over 100 µM throughout. The concentration for total growth inhibition (TGI) in the test with OVCAR-4 ovarian and in the test on TK-10 renal was over 100 µM in each case.
Take `C=C1CC(Cn2ccc(=O)[nH]c2=O)(c2ccc(Cl)cc2)OC1=O` (configuration not stated): the TGI in the test on EKVX NSCLC was 35 µM; in the test on HCT-15 colon, 6.91 µM; with HL-60(TB) leukemia, over 100 µM; with HT29 colon, 13.4 µM; in the test with MDA-MB-231 breast it was 31.4 µM; in the test on MDA-N, 17.1 µM. The TGI is 26.1 µM with NCI-H460 lung, 3.61 µM with OVCAR-4 ovarian and 4.72 µM with TK-10 renal.
